Reference: patent US10093683B2, “Factor XIa inhibitors” (Merck Sharp & Dohme Corp., priority 2014, dated 2018)
Structures can show the parent of a compound that is named as a salt.

What follows are compounds tested against human Factor XIa (Homo sapiens (Human), UniProt P03951) (assay: Factor XIa Assay). Conditions: read-out: FXIa Ki.
Assay type: biochemical
Summary of the method: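 Purified human FXIa (40 pM final) hydrolysing fluorogenic Z-Gly-Pro-Arg-AFC (100 μM) in 50 mM HEPES pH 7.4, 150 mM NaCl, 5 mM CaCl2, 0.1% PEG 8000, at room temperature or 37° C. Initial velocities measured after enzyme–inhibitor equilibration; Ki from Vo/Vi versus [I], assuming competitive inhibition.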

Sequence of human Factor XIa (P03951 388-625): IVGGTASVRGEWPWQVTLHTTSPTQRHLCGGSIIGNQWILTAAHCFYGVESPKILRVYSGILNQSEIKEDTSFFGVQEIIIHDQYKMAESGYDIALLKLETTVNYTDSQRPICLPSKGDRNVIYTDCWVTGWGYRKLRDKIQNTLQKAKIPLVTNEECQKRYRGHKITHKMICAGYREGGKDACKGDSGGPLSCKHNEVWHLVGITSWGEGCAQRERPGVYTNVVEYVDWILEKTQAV
Sequence of human Factor XIa (P03951 19-387 partner): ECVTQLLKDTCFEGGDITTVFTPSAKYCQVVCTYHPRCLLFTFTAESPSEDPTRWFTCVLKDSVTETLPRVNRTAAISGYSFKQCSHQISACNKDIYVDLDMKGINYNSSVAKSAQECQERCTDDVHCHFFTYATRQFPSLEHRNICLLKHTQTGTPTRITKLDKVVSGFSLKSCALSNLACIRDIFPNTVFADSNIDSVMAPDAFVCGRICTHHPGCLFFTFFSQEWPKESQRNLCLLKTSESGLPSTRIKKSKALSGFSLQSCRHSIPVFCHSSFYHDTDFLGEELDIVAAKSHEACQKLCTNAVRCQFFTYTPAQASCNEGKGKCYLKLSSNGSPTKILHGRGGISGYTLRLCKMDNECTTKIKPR

Row | Compound | Ki [nM]
1 | N#Cc1ccc(C(=O)N[C@@H](Cc2ccccc2)C(=O)N2CCC3(C2)OC(=O)Nc2ccc(Cl)cc23)cc1 (stereo partly drawn) [Example 150, N-((2S)-1-(6-chloro-2-oxo-1,2-dihydrospiro[benzo[d][1,3]oxazine-4,3′-pyrrolidin]-1′-yl)-1-oxo-3-phenylpropan-2-yl)-4-cyanobenzamide] | 430
2 | O=C1Nc2ccc(Cl)cc2C2(CCN(C(=O)[C@H](Cc3ccccc3)NC(=O)c3ccc(-c4nnn[nH]4)cc3)C2)O1 (stereo partly drawn) [Example 151, N-((2S)-1-(6-chloro-2-oxo-1,2-dihydrospiro[benzo[d][1,3]oxazine-4,3′-pyrrolidin]-1′-yl)-1-oxo-3-phenylpropan-2-yl)-4-(1H-tetrazol-5-yl)benzamide] | 1780
3 | N#Cc1ccc(C(=O)N[C@@H](Cc2ccccc2)C(=O)N2CCC3(C2)OC(=O)Nc2ccc(Cl)cc23)cn1 (stereo partly drawn) [Example 152] | 1020
4 | O=C1Nc2ccc(Cl)cc2C2(CCN(C(=O)[C@H](Cc3ccccc3)NC(=O)c3ccc4[nH]ccc4n3)C2)O1 (stereo partly drawn) [Example 153] | 488
5 | O=C1Nc2ccc(Cl)cc2C2(CCN(C(=O)[C@H](Cc3ccccc3)NC(=O)c3ccccc3-n3cccn3)C2)O1 (stereo partly drawn) [Example 154, N-((2S)-1-(6-chloro-2-oxo-1,2-dihydrospiro[benzo[d][1,3]oxazine-4,3′-pyrrolidin]-1′-yl)-1-oxo-3-phenylpropan-2-yl)-2-(1H-pyrazol-1-yl)benzamide] | 2520
6 | O=C1Nc2ccc(Cl)cc2C2(CCN(C(=O)[C@H](Cc3ccccc3)NC(=O)c3ccnc(O)c3)C2)O1 (stereo partly drawn) [Example 155] | 169
7 | O=C1Nc2ccc(Cl)cc2C2(CCN(C(=O)[C@H](Cc3ccccc3)NC(=O)c3ccon3)C2)O1 (stereo partly drawn) [Example 156] | 2150
8 | O=C1Nc2ccc(Cl)cc2C2(CCN(C(=O)[C@H](Cc3ccccc3)NC(=O)C3CCC(CO)CC3)C2)O1 (stereo partly drawn) [Example 157] | 3350
9 | O=C1Nc2ccc(Cl)cc2C2(CCN(C(=O)[C@H](Cc3ccccc3)NC(=O)c3ccc(CO)nc3)C2)O1 (stereo partly drawn) [Example 158] | 752
10 | O=C1Nc2ccc(Cl)cc2C2(CCN(C(=O)[C@H](Cc3ccccc3)NC(=O)c3ccc(-n4ccnc4)nc3)C2)O1 (stereo partly drawn) [Example 159] | 743
11 | O=C1Nc2ccc(Cl)cc2C2(CCN(C(=O)[C@H](Cc3ccccc3)NC(=O)c3ccc(C4(C(=O)O)CC4)cc3)C2)O1 (stereo partly drawn) [Example 160, 1-(4-(((2S)-1-(6-chloro-2-oxo-1,2-dihydrospiro[benzo[d][1,3]oxazine-4,3′-pyrrolidin]-1′-yl)-1-oxo-3-phenylpropan-2-yl)carbamoyl)phenyl)cyclopropanecarboxylic acid] | 5000
12 | O=C1Nc2ccc(Cl)cc2C2(CCN(C(=O)[C@H](Cc3ccccc3)NC(=O)C3(c4ccc(C(=O)O)cc4)CC3)C2)O1 (stereo partly drawn) [Example 161] | 4490
13 | O=C1Nc2ccc(Cl)cc2C2(CCN(C(=O)[C@H](Cc3ccccc3)NC(=O)c3ccc(NC(=O)C(F)(F)F)cc3)C2)O1 (stereo partly drawn) [Example 162, N-((2S)-1-(6-chloro-2-oxo-1,2-dihydrospiro[benzo[d][1,3]oxazine-4,3′-pyrrolidin]-1′-yl)-1-oxo-3-phenylpropan-2-yl)-4-(2,2,2-trifluoroacetamido)benzamide] | 594
14 | CS(=O)(=O)Nc1ccc(C(=O)N[C@@H](Cc2ccccc2)C(=O)N2CCC3(C2)OC(=O)Nc2ccc(Cl)cc23)cc1 (stereo partly drawn) [Example 163, N-((2S)-1-(6-chloro-2-oxo-1,2-dihydrospiro[benzo[d][1,3]oxazine-4,3′-pyrrolidin]-1′-yl)-1-oxo-3-phenylpropan-2-yl)-4-(methylsulfonamido)benzamide] | 63.2
15 | COC(=O)Nc1ccc(C(=O)N[C@@H](Cc2ccccc2)C(=O)N2CCC3(C2)OC(=O)Nc2ccc(Cl)cc23)nc1 (stereo partly drawn) [Example 166] | 184
16 | O=C1Nc2ccc(Cl)cc2C2(CCN(C(=O)[C@H](Cc3ccccc3)NC(=O)c3cnc4[nH]c(=O)oc4c3)C2)O1 (stereo partly drawn) [Example 167] | 4160
17 | CC(=O)Nc1cc(C(=O)N[C@@H](Cc2ccccc2)C(=O)N2CCC3(C2)OC(=O)Nc2ccc(Cl)cc23)ccn1 (stereo partly drawn) [Example 168] | 576
18 | O=C1Nc2ccc(Cl)cc2C2(CCN(C(=O)[C@H](Cc3ccccc3)NC(=O)c3cccc(N4CCNC4=O)c3)C2)O1 (stereo partly drawn) [Example 169, N-((2S)-1-(6-chloro-2-oxo-1,2-dihydrospiro[benzo[d][1,3]oxazine-4,3′-pyrrolidin]-1′-yl)-1-oxo-3-phenylpropan-2-yl)-3-(2-oxoimidazolidin-1-yl)benzamide] | 774
19 | Cc1nc(N)sc1C(=O)N[C@@H](Cc1ccccc1)C(=O)N1CCC2(C1)OC(=O)Nc1ccc(Cl)cc12 (stereo partly drawn) [Example 170] | 508
20 | O=C1Nc2ccc(Cl)cc2C2(CCN(C(=O)[C@H](Cc3ccccc3)NC(=O)c3ccc4c(c3)C(=O)NC4)C2)O1 (stereo partly drawn) [Example 172] | 328

Row | Compound | Ki [nM]
21 | C[C@@H]1NC(=O)O[C@H]1c1cccc(C(=O)N[C@@H](Cc2ccccc2)C(=O)N2CCC3(C2)OC(=O)Nc2ccc(Cl)cc23)c1 (stereo partly drawn) [Example 173, N-((2S)-1-(6-chloro-2-oxo-1,2-dihydrospiro[benzo[d][1,3]oxazine-4,3′-pyrrolidin]-1′-yl)-1-oxo-3-phenylpropan-2-yl)-3-((4S,5S)-4-methyl-2-oxooxazolidin-5-yl)benzamide] | 385
22 | O=C1Cc2ccc(C(=O)N[C@@H](Cc3ccccc3)C(=O)N3CCC4(C3)OC(=O)Nc3ccc(Cl)cc34)cc2N1 (stereo partly drawn) [Example 174] | 261
23 | Nc1nc(C(=O)N[C@@H](Cc2ccccc2)C(=O)N2CCC3(C2)OC(=O)Nc2ccc(Cl)cc23)cs1 (stereo partly drawn) [Example 175] | 212
24 | O=C1Nc2ccc(Cl)cc2C2(CCN(C(=O)[C@H](Cc3ccccc3)NC(=O)c3ccc4[nH]cnc4c3)C2)O1 (stereo partly drawn) [Example 176] | 59.8
25 | O=C1Nc2ccc(Cl)cc2C2(CCN(C(=O)[C@H](Cc3ccccc3)NC(=O)c3cc(O)ncn3)C2)O1 (stereo partly drawn) [Example 177] | 559
26 | O=C1Nc2ccc(Cl)cc2C2(CCN(C(=O)[C@H](Cc3ccccc3)NC(=O)c3ccc(O)c(F)c3)C2)O1 (stereo partly drawn) [Example 178, N-((2S)-1-(6-chloro-2-oxo-1,2-dihydrospiro[benzo[d][1,3]oxazine-4,3′-pyrrolidin]-1′-yl)-1-oxo-3-phenylpropan-2-yl)-3-fluoro-4-hydroxybenzamide] | 251
27 | N=C(N)Nc1ccc(C(=O)N[C@@H](Cc2ccccc2)C(=O)N2CCC3(C2)OC(=O)Nc2ccc(Cl)cc23)cc1 (stereo partly drawn) [Example 179, N-((2S)-1-(6-chloro-2-oxo-1,2-dihydrospiro[benzo[d][1,3]oxazine-4,3′-pyrrolidin]-1′-yl)-1-oxo-3-phenylpropan-2-yl)-4-guanidinobenzamide] | 454
28 | Nc1nc2cc(C(=O)N[C@@H](Cc3ccccc3)C(=O)N3CCC4(C3)OC(=O)Nc3ccc(Cl)cc34)ccc2[nH]1 (stereo partly drawn) [Example 180] | 56.7
29 | O=C1Nc2ccc(Cl)cc2C2(CCN(C(=O)[C@H](Cc3ccccc3)NC(=O)c3ccc4cn[nH]c4c3)C2)O1 (stereo partly drawn) [Example 182] | 137
30 | O=C1Nc2ccc(Cl)cc2C2(CCN(C(=O)[C@H](Cc3ccccc3)NC(=O)c3ccc4oc(=O)[nH]c4c3)C2)O1 (stereo partly drawn) [Example 183] | 86.9
31 | O=C1Nc2ccc(Cl)cc2C2(CCN(C(=O)[C@H](Cc3ccccc3)NC(=O)c3ccc4c(c3)S(=O)(=O)NC4=O)C2)O1 (stereo partly drawn) [Example 184] | 5000
32 | Nc1n[nH]c2ccc(C(=O)N[C@@H](Cc3ccccc3)C(=O)N3CCC4(C3)OC(=O)Nc3ccc(Cl)cc34)cc12 (stereo partly drawn) [Example 185] | 96
33 | COCCOC(=O)Nc1ccc(C(=O)N[C@@H](Cc2ccccc2)C(=O)N2CCC3(C2)OC(=O)Nc2ccc(Cl)cc23)cn1 (stereo partly drawn) [Example 186] | 166
34 | O=C1CCCc2cc(C(=O)N[C@@H](Cc3ccccc3)C(=O)N3CCC4(C3)OC(=O)Nc3ccc(Cl)cc34)ccc2N1 (stereo partly drawn) [Example 187] | 151
35 | O=C(Nc1ccc(C(=O)N[C@@H](Cc2ccccc2)C(=O)N2CCC3(C2)OC(=O)Nc2ccc(Cl)cc23)cc1)OCCN1CCNCC1 (stereo partly drawn) [Example 190, 2-(Piperazin-1-yl)ethyl (4-(((2S)-1-(6-chloro-2-oxo-1,2-dihydrospiro[benzo[d][1,3]oxazine-4,3′-pyrrolidin]-1′-yl)-1-oxo-3-phenylpropan-2-yl)carbamoyl)phenyl)carbamate 2 trifluoroacetic acid salt] | 76.7
36 | O=C1C[S+]([O-])c2cc(C(=O)N[C@@H](Cc3ccccc3)C(=O)N3CCC4(C3)OC(=O)Nc3ccc(Cl)cc34)ccc2N1 (stereo partly drawn) [Example 192, N-((2S)-1-(6-chloro-2-oxo-1,2-dihydrospiro[benzo[d][1,3]oxazine-4,3′-pyrrolidine]-1′-yl)-1-oxo-3-phenylpropan-2-yl)-3-oxo-3,4-dihydro-2H-benzo[b][1,4]thiazine-7-carboxamide 1-oxide] | 99.7
37 | O=C1CS(=O)(=O)c2cc(C(=O)N[C@@H](Cc3ccccc3)C(=O)N3CCC4(C3)OC(=O)Nc3ccc(Cl)cc34)ccc2N1 (stereo partly drawn) [Example 193, N-((2S)-1-(6-chloro-2-oxo-1,2-dihydrospiro[benzo[d][1,3]oxazine-4,3′-pyrrolidine]-1′-yl)-1-oxo-3-phenylpropan-2-yl)-3-oxo-3,4-dihydro-2H-benzo[b][1,4]thiazine-7-carboxamide 1,1-dioxide] | 145
38 | COC(=O)Nc1ccc(C(=O)N[C@@H](Cc2ccccc2)C(=O)N2CCC3(C2)OC(=O)Nc2ccc(Cl)cc23)s1 (stereo partly drawn) [Example 196, Methyl (5-(((2S)-1-(6-chloro-2-oxo-1,2-dihydrospiro[benzo[d][1,3]oxazine-4,3′-pyrrolidin]-1′-yl)-1-oxo-3-phenylpropan-2-yl)carbamoyl)thiophen-2-yl)carbamate] | 63.4
39 | COC(=O)Nc1ccc(C(=O)N[C@@H](CC2CC2)C(=O)N2CCC[C@@]3(C2)OC(=O)Nc2ccc(Cl)cc23)c(Cl)c1 [Example 201, methyl (3-chloro-4-(((S)-1-((R)-6-chloro-2-oxo-1,2-dihydrospiro[benzo[d][1,3]oxazine-4,3′-piperidin]-1′-yl)-3-cyclopropyl-1-oxopropan-2-yl)carbamoyl)phenyl)carbamate] | 91.3
